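These data come from cells grown in 96-well plates and exposed to compound for 48 hours at five concentrations. Abbreviation: GI50, concentration required for 50% inhibition of growth.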 Calls of active or inactive are those of the source. Rule as the data show it: active = GI50 up to about 1.1 µM and inactive = higher.
Legend:
Test in all cases: growth of human tumour cells (NCI), 48 h
A498 = tested on: A498
SF-268 = tested on: SF-268
786-0 = tested on: 786-0
SF-295 = tested on: SF-295
HCT-116 = tested on: HCT-116
KM12 = tested on: KM12
M14 = tested on: M14
SK-MEL-28 = tested on: SK-MEL-28
K562 = tested on: K562
SK-MEL-2 = tested on: SK-MEL-2
HT-29 = tested on: HT-29
LOX IMVI = tested on: LOX IMVI
NCI-H460 = tested on: NCI-H460
OVCAR-3 = tested on: OVCAR-3
DU-145 = tested on: DU-145
HCC 2998 = tested on: HCC 2998
UACC-257 = tested on: UACC-257
PC-3 = tested on: PC-3
MDA-MB-435 = tested on: MDA-MB-435
NCI/ADR-RES = tested on: NCI/ADR-RES

SMILES	GI50 (A498)	GI50 (SF-268)	GI50 (786-0)	GI50 (SF-295)	GI50 (HCT-116)	GI50 (KM12)	GI50 (M14)	GI50 (SK-MEL-28)	GI50 (K562)	GI50 (SK-MEL-2)	GI50 (HT-29)	GI50 (LOX IMVI)	GI50 (NCI-H460)	GI50 (OVCAR-3)	GI50 (DU-145)	GI50 (HCC 2998)	GI50 (UACC-257)	GI50 (PC-3)	GI50 (MDA-MB-435)	GI50 (NCI/ADR-RES)
O=C(O)/C=C/c1ccc(O)c(O)c1 [CAFFEIC ACID]	> 100 µM (inactive)	> 100 µM (inactive)	> 100 µM (inactive)	> 100 µM (inactive)	> 100 µM (inactive)	> 100 µM (inactive)	> 100 µM (inactive)	> 100 µM (inactive)	> 100 µM (inactive)	> 100 µM (inactive)	> 100 µM (inactive)	> 100 µM (inactive)	> 100 µM (inactive)	> 100 µM (inactive)	> 100 µM (inactive)	> 100 µM (inactive)	> 100 µM (inactive)	> 100 µM (inactive)	–	–
CC(Br)C(=O)NN1C2=C(Nc3ccccc31)c1cccc3cccc2c13 (stereo unspecified)	–	> 100 µM (inactive)	45.9 µM (inactive)	39.3 µM (inactive)	> 100 µM (inactive)	> 100 µM (inactive)	> 100 µM (inactive)	> 100 µM (inactive)	> 100 µM (inactive)	–	49.1 µM (inactive)	41.4 µM (inactive)	49.4 µM (inactive)	49.3 µM (inactive)	> 100 µM (inactive)	13.5 µM (inactive)	48.2 µM (inactive)	> 100 µM (inactive)	> 100 µM (inactive)	65.2 µM (inactive)
CCc1n[nH]c(=O)n1/N=C/c1ccccc1Cl	> 100 µM (inactive)	50 µM (inactive)	> 100 µM (inactive)	> 100 µM (inactive)	> 100 µM (inactive)	93.8 µM (inactive)	> 100 µM (inactive)	> 100 µM (inactive)	> 100 µM (inactive)	> 100 µM (inactive)	> 100 µM (inactive)	> 100 µM (inactive)	> 100 µM (inactive)	> 100 µM (inactive)	> 100 µM (inactive)	> 100 µM (inactive)	> 100 µM (inactive)	–	85.7 µM (inactive)	> 100 µM (inactive)
Cc1ccc(-c2cnc(NC3OC(COC(=O)c4ccccc4)C(OC(=O)c4ccccc4)C(OC(=O)c4ccccc4)C3OC(=O)c3ccccc3)s2)cc1 (stereo unspecified)	–	> 100 µM (inactive)	44.6 µM (inactive)	> 100 µM (inactive)	> 100 µM (inactive)	–	40.6 µM (inactive)	> 100 µM (inactive)	–	> 100 µM (inactive)	> 100 µM (inactive)	> 100 µM (inactive)	> 100 µM (inactive)	> 100 µM (inactive)	> 100 µM (inactive)	–	67.9 µM (inactive)	> 100 µM (inactive)	> 100 µM (inactive)	> 100 µM (inactive)
C=C1C(=O)O[C@@H]2O[C@@]3(C)CC[C@H]4[C@H](C)CC[C@@H]1[C@@]24O3 [DEOXYARTEMISITENE]	34.6 µM (inactive)	28.1 µM (inactive)	13.6 µM (inactive)	27.1 µM (inactive)	10.8 µM (inactive)	4.19 µM (inactive)	24.9 µM (inactive)	40.6 µM (inactive)	3.56 µM (inactive)	18.2 µM (inactive)	17.8 µM (inactive)	16.1 µM (inactive)	22.3 µM (inactive)	22.2 µM (inactive)	12.9 µM (inactive)	21.9 µM (inactive)	18.9 µM (inactive)	19.5 µM (inactive)	29.2 µM (inactive)	–
COc1cccc(-c2cc(O)c3cc4c(cc3n2)OCO4)c1	0.069 µM (active)	0.731 µM (active)	0.107 µM (active)	0.0818 µM (active)	0.0902 µM (active)	0.0502 µM (active)	0.0463 µM (active)	> 53.1 µM (inactive)	0.0446 µM (active)	0.057 µM (active)	0.144 µM (active)	0.0857 µM (active)	0.142 µM (active)	0.038 µM (active)	–	0.182 µM (active)	0.0452 µM (active)	–	–	–
Nc1ncnc2c1ncn2C1OC(CSC(F)(F)F)C(O)C1O (stereo unspecified)	> 100 µM (inactive)	> 100 µM (inactive)	> 100 µM (inactive)	> 100 µM (inactive)	> 100 µM (inactive)	> 100 µM (inactive)	> 100 µM (inactive)	> 100 µM (inactive)	> 100 µM (inactive)	> 100 µM (inactive)	> 100 µM (inactive)	> 100 µM (inactive)	> 100 µM (inactive)	> 100 µM (inactive)	–	> 100 µM (inactive)	> 100 µM (inactive)	–	–	–
CCN(CC)C(=O)c1cccc2c(OC)ccc(OC)c12	> 100 µM (inactive)	> 100 µM (inactive)	> 100 µM (inactive)	> 100 µM (inactive)	> 100 µM (inactive)	> 100 µM (inactive)	> 100 µM (inactive)	> 100 µM (inactive)	> 100 µM (inactive)	> 100 µM (inactive)	> 100 µM (inactive)	> 100 µM (inactive)	> 100 µM (inactive)	> 100 µM (inactive)	–	> 100 µM (inactive)	> 100 µM (inactive)	–	–	–
C=CCOC1OC(CO[Si](C)(C)C(C)(C)C)C(OCc2ccccc2)C(OCc2ccccc2)C1OCc1ccccc1 (stereo unspecified)	–	40.5 µM (inactive)	10.5 µM (inactive)	22.1 µM (inactive)	23 µM (inactive)	> 100 µM (inactive)	68.1 µM (inactive)	> 100 µM (inactive)	> 100 µM (inactive)	47.8 µM (inactive)	79.1 µM (inactive)	25.9 µM (inactive)	42 µM (inactive)	37.2 µM (inactive)	39.7 µM (inactive)	–	46.8 µM (inactive)	58.9 µM (inactive)	> 100 µM (inactive)	36.6 µM (inactive)
C[Si](C)(C)/C(Br)=C\CCN1C(=O)CCC1=O	> 100 µM (inactive)	> 100 µM (inactive)	> 100 µM (inactive)	> 100 µM (inactive)	> 100 µM (inactive)	> 100 µM (inactive)	> 100 µM (inactive)	> 100 µM (inactive)	> 100 µM (inactive)	> 100 µM (inactive)	> 100 µM (inactive)	> 100 µM (inactive)	> 100 µM (inactive)	> 100 µM (inactive)	–	> 100 µM (inactive)	> 100 µM (inactive)	–	–	–
O=C(Sc1n[nH]c(=O)[nH]c1=O)c1cccc2nc3ccccc3nc12	> 100 µM (inactive)	> 100 µM (inactive)	> 100 µM (inactive)	57 µM (inactive)	> 100 µM (inactive)	39 µM (inactive)	23.6 µM (inactive)	30.7 µM (inactive)	47.9 µM (inactive)	68.2 µM (inactive)	13.5 µM (inactive)	18.5 µM (inactive)	8.63 µM (inactive)	50 µM (inactive)	10.6 µM (inactive)	27.9 µM (inactive)	13.2 µM (inactive)	–	13.7 µM (inactive)	> 100 µM (inactive)
